Some test systems named below: SF-295 CNS; HCC-2998 colon; MDA-MB-231 breast; OVCAR-3 ovarian; UACC-62 melanoma; RPMI-8226 leukemia; SK-MEL-2 melanoma; CAKI-1 renal; OVCAR-5 ovarian; MDA-N.
Common to all, as to experiment: growth of human tumour cells (NCI), 48 h

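Dose response: 5 concentrations. Exposure: 48 h. Format: 96-well plates. Endpoint: linear interpolation; highest concentration if not reached. GI50 = concentration required for 50% inhibition of growth. TGI: concentration producing complete growth inhibition.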

Regarding `C/C(Nc1ccc(Cl)cc1Cl)=C1/CCOC1=O`, the TGI with SF-295 CNS is 54 µM; in the experiment on HCC-2998 colon, > 100 µM; in the experiment on MDA-MB-231 breast it was 46.3 µM; with OVCAR-3 ovarian, > 100 µM; in the experiment on UACC-62 melanoma, > 100 µM; with RPMI-8226 leukemia it was > 100 µM.

`C#CCC1(C(=O)OCC)C(=O)c2ccccc2N(C)C1=O` (stereo unspecified): the TGI in the experiment on SF-295 CNS, in the experiment on SK-MEL-2 melanoma, in the experiment with OVCAR-3 ovarian, in the experiment with CAKI-1 renal, in the experiment with UACC-62 melanoma and in the experiment with RPMI-8226 leukemia was > 100 µM each time.

With `CC(=O)O[C@H]1CC[C@@]2(C)[C@H](CC[C@@H]3[C@@H]2CC[C@]2(C)[C@@H](c4ccc(=O)oc4)C[C@H]4O[C@]342)C1`, the TGI in the experiment on SF-295 CNS is 2.97 µM; in the experiment with HCC-2998 colon it was 8.88 µM; in the experiment on SK-MEL-2 melanoma, 6.49 µM; in the experiment on OVCAR-5 ovarian it was 12.2 µM; in the experiment with OVCAR-3 ovarian, 1.67 µM; in the experiment on CAKI-1 renal, 1.31 µM. The TGI worked out at 3.46 µM in the experiment with UACC-62 melanoma and 5.1 µM in the experiment on RPMI-8226 leukemia.

As for `CCC(CC(C)C)Nc1ccc(NC(CC)CC(C)C)cc1` (stereo unspecified), the GI50 in the experiment on SF-295 CNS is 23 µM; in the experiment on HCC-2998 colon, 19.3 µM; in the experiment on MDA-MB-231 breast, 16.4 µM; with SK-MEL-2 melanoma it was 12.9 µM; in the experiment with OVCAR-5 ovarian, 15.6 µM; with OVCAR-3 ovarian, 13.3 µM. Also, the GI50 was 40.2 µM in the experiment on CAKI-1 renal, 10.6 µM in the experiment with UACC-62 melanoma and 3.85 µM with RPMI-8226 leukemia. For the same molecule, the TGI amounted to 61.4 µM in the experiment on SF-295 CNS; 36 µM in the experiment with HCC-2998 colon; 33.2 µM in the experiment on MDA-MB-231 breast; 27.4 µM with SK-MEL-2 melanoma; 29.1 µM with OVCAR-5 ovarian; 26 µM in the experiment on OVCAR-3 ovarian. Moreover, the TGI in the experiment with CAKI-1 renal was > 100 µM; in the experiment on UACC-62 melanoma, 24.3 µM; with RPMI-8226 leukemia it was 18.5 µM.

On to `CO[C@]1(CN2CCN3CCCC[C@@H]3C2)/C=C/C[C@H](C)[C@@H](C)S(=O)(=O)NC(=O)c2ccc3c(c2)N(C[C@@H]2CC[C@H]21)C[C@@]1(CCCc2cc(Cl)ccc21)CO3`, for which the GI50 in the experiment with HCC-2998 colon is 1.4 µM; in the experiment with MDA-MB-231 breast, 1.78 µM; in the experiment on SK-MEL-2 melanoma, 0.0454 µM; in the experiment on OVCAR-5 ovarian, 1.93 µM; with OVCAR-3 ovarian, 1.62 µM; in the experiment with CAKI-1 renal, 1.79 µM. Also, the GI50 is 0.148 µM with UACC-62 melanoma and 0.0185 µM in the experiment on RPMI-8226 leukemia. Besides, the TGI in the experiment with HCC-2998 colon was found to be 2.73 µM; with MDA-MB-231 breast it was 3.27 µM; with SK-MEL-2 melanoma it was 0.183 µM; in the experiment with OVCAR-5 ovarian it was 3.8 µM; in the experiment on OVCAR-3 ovarian, 3.03 µM; in the experiment with CAKI-1 renal, 4.24 µM. Besides, the TGI amounted to 1.22 µM in the experiment with UACC-62 melanoma and 41.8 µM in the experiment with RPMI-8226 leukemia.

Take `C(/Cc1ccc2c(c1)OCO2)=N\NC1=NCCCN1`: the TGI in the experiment with SF-295 CNS, in the experiment on HCC-2998 colon, with MDA-MB-231 breast, with SK-MEL-2 melanoma, in the experiment with OVCAR-5 ovarian and in the experiment on OVCAR-3 ovarian was > 100 µM each time. Moreover, the TGI with UACC-62 melanoma, with MDA-N and in the experiment with RPMI-8226 leukemia was > 100 µM throughout.

`CC(=O)Nc1cc(Nc2cc(=O)[nH]c(=O)[nH]2)ccc1C`: the TGI in the experiment with SF-295 CNS, in the experiment on HCC-2998 colon, with MDA-MB-231 breast, with OVCAR-5 ovarian, in the experiment with OVCAR-3 ovarian and in the experiment with MDA-N was > 100 µM in each case. Further, the TGI in the experiment on RPMI-8226 leukemia is > 100 µM.

For the molecule `Cc1csc(NC(=NCCN2CCOCC2)Nc2nc(C)cs2)n1`, the TGI in the experiment with SF-295 CNS, in the experiment on HCC-2998 colon, in the experiment with SK-MEL-2 melanoma, with OVCAR-5 ovarian, with OVCAR-3 ovarian and with CAKI-1 renal was > 100 µM throughout. For the same molecule, the TGI in the experiment with UACC-62 melanoma and in the experiment with RPMI-8226 leukemia was > 100 µM each time.

Consider `O=C1c2ccccc2C(=O)N1c1nc(-c2ccc(Cl)cc2)cc(N2N=C(c3ccc(Br)cc3)CC2c2ccccc2)n1` (stereo unspecified), for which the TGI in the experiment with SF-295 CNS was 3.65 µM; in the experiment with HCC-2998 colon it was 0.966 µM; in the experiment with MDA-MB-231 breast it was 23.3 µM; in the experiment with SK-MEL-2 melanoma, > 42.2 µM; with OVCAR-3 ovarian, 2.65 µM; with UACC-62 melanoma, 11.5 µM. Besides, the TGI stood at 4.57 µM in the experiment with MDA-N and 11.7 µM with RPMI-8226 leukemia.

Regarding `CC(=O)CC(=O)CCC(=O)O`, the TGI with SF-295 CNS, in the experiment on HCC-2998 colon, in the experiment on SK-MEL-2 melanoma, in the experiment on OVCAR-5 ovarian and in the experiment on CAKI-1 renal was > 100 µM each time.

As for `O=C1C=CC(=O)c2c(Cl)ccc(O)c21`, the TGI in the experiment with SF-295 CNS was > 57 µM; in the experiment on HCC-2998 colon, > 100 µM; in the experiment with SK-MEL-2 melanoma it was 97.5 µM; with OVCAR-5 ovarian, > 89.3 µM; in the experiment on OVCAR-3 ovarian it was 29.1 µM; in the experiment on CAKI-1 renal, 16.1 µM. The TGI in the experiment on UACC-62 melanoma came to 30.9 µM; in the experiment with RPMI-8226 leukemia, 23.4 µM.

As to `CCOC(=O)c1cn(C)c(=S)n2c1nc1ccccc12`, the TGI with SF-295 CNS, in the experiment with HCC-2998 colon, in the experiment with MDA-MB-231 breast, with SK-MEL-2 melanoma, in the experiment on OVCAR-5 ovarian and with OVCAR-3 ovarian was > 100 µM each time. The TGI with CAKI-1 renal was > 100 µM; in the experiment on UACC-62 melanoma, > 100 µM; in the experiment with RPMI-8226 leukemia, 95.6 µM.

On to `Cc1ccccc1OC(C)C(=O)NN1C(=O)CC(=O)N(c2ccccc2)C1=S` (stereo unspecified), for which the TGI in the experiment on SF-295 CNS, with HCC-2998 colon, in the experiment on MDA-MB-231 breast, in the experiment on SK-MEL-2 melanoma, with OVCAR-5 ovarian and with OVCAR-3 ovarian was > 100 µM in each case. The TGI in the experiment with CAKI-1 renal, in the experiment on UACC-62 melanoma and in the experiment with RPMI-8226 leukemia was > 100 µM each time.

With `COc1ccccc1CNCCCCCCCCCCCCN1C(=O)c2ccc3c4c(ccc(c24)C1=O)C(=O)N(CCCCCCCCCCCCNCc1ccccc1OC)C3=O`, the GI50 in the experiment with SF-295 CNS was 2.24 µM; in the experiment with HCC-2998 colon, > 50 µM; in the experiment with MDA-MB-231 breast, > 50 µM; with SK-MEL-2 melanoma, 1.99 µM; in the experiment with OVCAR-5 ovarian, > 50 µM; with CAKI-1 renal, > 50 µM. Also, the GI50 with UACC-62 melanoma is > 50 µM. Also, the TGI in the experiment on SF-295 CNS, in the experiment on HCC-2998 colon, in the experiment on MDA-MB-231 breast, in the experiment on SK-MEL-2 melanoma, with OVCAR-5 ovarian and in the experiment with CAKI-1 renal was > 50 µM throughout. The TGI in the experiment on UACC-62 melanoma was > 50 µM.

These data come from PubChem BioAssay (NCI).
